According to PubChem BioAssay (NCI):
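Here, GI50 denotes the concentration required for 50% inhibition of growth. TGI: total growth inhibition.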

Experiments:
Experiment in all cases: NCI anticancer screen, dose series, 384-well format
NCI-H226 lung = tested on: NCI-H226 lung
IGROV1 ovarian = tested on: IGROV1 ovarian
786-0 renal = tested on: 786-0 renal
SF-539 CNS = tested on: SF-539 CNS
A498 renal = tested on: A498 renal
U251 glioblastoma = tested on: U251 glioblastoma
NCI-H522 lung = tested on: NCI-H522 lung
OVCAR-8 ovarian = tested on: OVCAR-8 ovarian
HS 578T breast = tested on: HS 578T breast
A549 NSCLC = tested on: A549 NSCLC
UO-31 renal = tested on: UO-31 renal
HCC-2998 colon = tested on: HCC-2998 colon
MALME-3M melanoma = tested on: MALME-3M melanoma

Cn1cc(CNCC2CCN(c3ncc(C(=O)NO)cn3)CC2)c2ccccc21
GI50 (NCI-H226 lung): 31.9 nM | TGI (NCI-H226 lung): 115 nM | GI50 (IGROV1 ovarian): 10.2 nM | TGI (IGROV1 ovarian): 23.7 nM | GI50 (786-0 renal): 22.8 nM | TGI (786-0 renal): 120 nM | GI50 (SF-539 CNS): 13.9 nM | TGI (SF-539 CNS): 53 nM | GI50 (A498 renal): 12.8 nM | TGI (A498 renal): 29.3 nM | GI50 (U251 glioblastoma): 11.3 nM | TGI (U251 glioblastoma): 24.1 nM | GI50 (NCI-H522 lung): < 10 nM | TGI (NCI-H522 lung): 20.8 nM | GI50 (OVCAR-8 ovarian): < 10 nM | TGI (OVCAR-8 ovarian): 21.3 nM | GI50 (HS 578T breast): < 10.4 nM | TGI (HS 578T breast): 22.4 nM | GI50 (A549 NSCLC): 11.9 nM | TGI (A549 NSCLC): 32.1 nM | GI50 (UO-31 renal): 27.3 nM | TGI (UO-31 renal): 123 nM | GI50 (HCC-2998 colon): < 11.1 nM | TGI (HCC-2998 colon): 24.8 nM | GI50 (MALME-3M melanoma): < 10 nM | TGI (MALME-3M melanoma): < 14.5 nM
